# Test results from PubChem BioAssay AID1963875 (Molecular Pharmacology Branch, DTP, NCI, 2024).
# Tested on: KRAS-mutant PDC complex spheroid viability
# Experiment: Anticancer human tumor 186277-243-T-J2-PDC patient-derived colon adenocarcinoma cell line growth inhibition [KRAS2]
# Settings: for IC50: curve of first compound; for viability, T/C: stronger effect = lower value
# In short: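 Combination screen of spheroid viability in tumor-cell co-cultures with endothelial (HUVEC) and mesenchymal stem cell stroma. Each agent was tested in half-log dilutions, topping at clinical Cmax or at 10 microM without a known Cmax.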
# [1] = second compound 0.1 µM, first compound 0.0316 µM
# [2] = second compound 0.1 µM, first compound 0.1 µM
# [3] = second compound 0.1 µM, first compound 0.316 µM
# [4] = second compound 0.1 µM, first compound 1 µM
# [5] = second compound 0.1 µM, first compound 3.16 µM
# [6] = second compound 0.1 µM, first compound 10 µM
# [7] = second compound 0.316 µM, first compound 0.0316 µM
# [8] = second compound 0.316 µM, first compound 0.1 µM
# [9] = second compound 0.316 µM, first compound 0.316 µM
# [10] = second compound 0.316 µM, first compound 1 µM
# [11] = second compound 0.316 µM, first compound 3.16 µM
# [12] = second compound 0.316 µM, first compound 10 µM
# [13] = second compound 1 µM, first compound 0.0316 µM
# [14] = second compound 1 µM, first compound 0.1 µM
# [15] = second compound 1 µM, first compound 0.316 µM
# [16] = second compound 1 µM, first compound 1 µM
# [17] = second compound 1 µM, first compound 3.16 µM
# [18] = second compound 1 µM, first compound 10 µM
# [19] = second compound 3.16 µM, first compound 0.0316 µM
# [20] = second compound 3.16 µM, first compound 0.1 µM
# [21] = second compound 3.16 µM, first compound 0.316 µM
# [22] = second compound 3.16 µM, first compound 1 µM
# [23] = second compound 3.16 µM, first compound 3.16 µM
# [24] = second compound 3.16 µM, first compound 10 µM
# [25] = second compound 10 µM, first compound 0.0316 µM
# [26] = second compound 10 µM, first compound 0.1 µM
# [27] = second compound 10 µM, first compound 0.316 µM
# [28] = second compound 10 µM, first compound 1 µM
# [29] = second compound 10 µM, first compound 3.16 µM
# [30] = second compound 10 µM, first compound 10 µM
# 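Throughout, for viability, T/C: viability read after seven days of compound exposure; 100% = DMSO vehicle-treated spheroids so lower means less viable.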
Structure (SMILES),IC50 (second compound 0.1 µM) [µM],IC50 (second compound 0.316 µM) [µM],IC50 (second compound 1 µM) [µM],IC50 (second compound 3.16 µM) [µM],IC50 (second compound 10 µM) [µM],"viability, T/C [1] [%]","viability, T/C [2] [%]","viability, T/C [3] [%]","viability, T/C [4] [%]","viability, T/C [5] [%]","viability, T/C [6] [%]","viability, T/C [7] [%]","viability, T/C [8] [%]","viability, T/C [9] [%]","viability, T/C [10] [%]","viability, T/C [11] [%]","viability, T/C [12] [%]","viability, T/C [13] [%]","viability, T/C [14] [%]","viability, T/C [15] [%]",other results
COC(=O)c1ccc2c(C(=Nc3ccc(N(C)C(=O)CN4CCN(C)CC4)cc3)c3ccccc3)c(O)[nH]c2c1 + CC1OCC2(CCN(c3cnc(Sc4ccnc(N)c4Cl)c(N)n3)CC2)C1N,2.14,1.85,1.51,0.692,0.368,105,108,116,120,18,12.9,108,105,113,98.9,4.62,10.2,116,108,100,"viability, T/C [16]: 74.8%; viability, T/C [17]: 4.4%; viability, T/C [18]: 4.44%; viability, T/C [19]: 103%; viability, T/C [20]: 93.2%; viability, T/C [21]: 94%; viability, T/C [22]: 29.4%; viability, T/C [23]: 1.17%; viability, T/C [24]: 1.68%; viability, T/C [25]: 83%; viability, T/C [26]: 82%; viability, T/C [27]: 54.5%; viability, T/C [28]: 15.6%; viability, T/C [29]: 0.48%; viability, T/C [30]: 0.71%"
O=C(c1cc(Cc2n[nH]c(=O)c3ccccc23)ccc1F)N1CCN(C(=O)C2CC2)CC1 + CC1OCC2(CCN(c3cnc(Sc4ccnc(N)c4Cl)c(N)n3)CC2)C1N,6.48,6.08,3.95,1.9,0.614,118,112,114,109,81,31.3,129,124,106,115,75,28.8,122,113,126,"viability, T/C [16]: 103%; viability, T/C [17]: 56.8%; viability, T/C [18]: 23.8%; viability, T/C [19]: 92.2%; viability, T/C [20]: 94.9%; viability, T/C [21]: 87.4%; viability, T/C [22]: 70.3%; viability, T/C [23]: 33.9%; viability, T/C [24]: 16.3%; viability, T/C [25]: 86.7%; viability, T/C [26]: 66%; viability, T/C [27]: 62.9%; viability, T/C [28]: 45.8%; viability, T/C [29]: 24.9%; viability, T/C [30]: 14.1%"
